Format in all cases: cell-based
For assay [1], the system named is Aβ42. Briefly: Screening for γ-secretase-modulating activity, Method 2: Aβ42 Alphalisa in supernatant of SKNBE2 cells carrying APP 695 wild type (Table 12c). Particulars: Method 2, Table 12c, incubated overnight. The procedure:
(§1) Screening was carried out using SKNBE2 cells carrying the APP 695—wild type, grown in Dulbecco's Modified Eagle's Medium/Nutrient mixture F-12 (DMEM/NUT-mix F-12) (HAM) provided by Invitrogen (cat no. 10371-029) containing 5% Serum/Fe supplemented with 1% non-essential amino acids, 1-glutamine 2 mM, Hepes 15 mM, penicillin 50 U/ml (units/ml) en streptomycin 50 μg/ml. Cells were grown to near confluency.
(§2) The screening was performed using a modification of the assay as described in Citron et al (1997) Nature Medicine 3: 67. Briefly, cells were plated in a 384-well plate at 10^4 cells/well in Ultraculture (Lonza, BE12-725F) supplemented with 1% glutamine (Invitrogen, 25030-024), 1% non-essential amino acid (NEAA), penicillin 50 U/ml en streptomycin 50 μg/ml in the presence of test compound at different test concentrations. The cell/compound mixture was incubated overnight at 37° C., 5% CO2, The next day the media were assayed by two sandwich immuno-assays, for Aβ42 and Aβtotal.
(§3) Aβtotal and Aβ42 concentrations were quantified in the cell supernatant using the Aphalisa technology (Perkin Elmer). Alphalisa is a sandwich assay using biotinylated antibody attached to streptavidin coated donorbeads and antibody conjugated to acceptor beads. In the presence of antigen, the beads come into close proximity. The excitation of the donor beads provokes the release of singlet oxygen molecules that trigger a cascade of energy transfer in the acceptor beads, resulting in light emission. To quantify the amount of Aβ42 in the cell supernatant, monoclonal antibody specific to the C-terminus of Aβ42 (JRF/cAβ42/26) was coupled to the receptor beads and biotinylated antibody specific to the N-terminus of Aβ (JRF/AβN/25) was used to react with the donor beads. To quantify the amount of Aβtotal in the cell supernatant, monoclonal antibody specific to the N-terminus of Aβ (JRF/AβN/25) was coupled to the receptor beads and biotinylated antibody specific to the mid region of Aβ (biotinylated 4G8) was used to react with the donor beads.
(§4) To obtain the values reported in Table 12c, the data are calculated as percentage of the maximum amount of amyloid Beta 42 measured in the absence of the test compound. The sigmoidal dose response curves were analyzed using non-linear regression analysis with percentage of the control plotted against the log concentration of the compound. A 4-parameter equation was used to determine the IC50.
For orientation: Bead proximity is the source of the signal in Alpha formats.

Assay [2] has as its system Aβtotal. Briefly: Screening for γ-secretase-modulating activity, Method 2: Aβtotal Alphalisa in supernatant of SKNBE2 cells carrying APP 695 wild type (Table 12c). The conditions noted are these: Method 2, Table 12c, incubated overnight. The procedure: as §1, §2, §3, §4
Assay [3] concerns Aβtotal. Briefly: Screening for γ-secretase-modulating activity, Method 1: Aβtotal sandwich ELISA in supernatant of SKNBE2 cells carrying APP 695 wild type (Tables 12a, 12b). The conditions noted are these: Homo sapiens. On the procedure: (§5) Screening was carried out using SKNBE2 cells carrying the APP 695—wild type, grown in Dulbecco's Modified Eagle's Medium/Nutrient mixture F-12 (DMEM/NUT-mix F-12) (HAM) provided by Gibco (cat no. 31330-38) containing 5% Serum/Fe supplemented with 1% non-essential amino acids. Cells were grown to near confluency.
(§6) The screening was performed using the assay as described in Citron et al (1997) Nature Medicine 3: 67. Briefly, cells were plated in a 96-well plate at about 10^5 cells/ml one day prior to addition of compounds. Compounds were added to the cells in Ultraculture (Lonza, BE12-725F) supplemented with 1% glutamine (Invitrogen, 25030-024) for 18 hours. The media were assayed by two sandwich ELISAs, for Aβ42 and Aβtotal. Toxicity of the compounds was assayed by WST-1 cell proliferation reagent (Roche, 1 644 807) according to the manufacturer's protocol.
To quantify the amount of Aβtotal in the cell supernatant, samples and standards were added to a 6E10-coated plate. The plate was allowed to incubate overnight at 4° C. in order to allow formation of the antibody-amyloid complex. Following this incubation and subsequent wash steps a selective anti-Aβ-antibody conjugate (biotinylated 4G8) was added and incubated for a minimum of 1 hour in order to allow formation of the antibody-Amyloid-antibody-complex. After incubation and appropriate wash steps, a Streptavidine-Peroxidase-Conjugate was added, followed 30 minutes later by an addition of Quanta Blu fluorogenic peroxidase substrate according to the manufacturer's instructions (Pierce Corp., Rockford, Ill.).
(§7) To obtain the values reported in Table 12a, the sigmoidal dose response curves were analysed by computerised curve-fitting, with percent of inhibition plotted against compound concentration. A 4-parameter equation (model 205) in XLfit was used to determine the IC50. The top and the bottom of the curve were fixed to 100 and 0, respectively, and the hill slope was fixed to 1. The IC50 represents the concentration of a compound that is required for inhibiting a biological effect by 50% (Here, it is the concentration where Aβ peptide level is reduced by 50%).
(§8) To obtain the values reported in Table 12b, the data are calculated as percentage of the maximum amount of amyloid Beta 42 measured in the absence of the test compound. The sigmoidal dose response curves were analyzed using non-linear regression analysis with percentage of the control plotted against the log concentration of the compound. A 4-parameter equation was used to determine the IC50. The values reported in Table 12b are averaged IC50 values.
In general terms: ELISA stands for enzyme-linked immunosorbent assay.

Assay [4] deals with Aβ42. Briefly: Screening for γ-secretase-modulating activity, Method 1: Aβ42 sandwich ELISA in supernatant of SKNBE2 cells carrying APP 695 wild type (Tables 12a, 12b). The conditions noted are these: Homo sapiens. The procedure: as §5, §6
To quantify the amount of Aβ42 in the cell supernatant, commercially available Enzyme-Linked-Immunosorbent-Assay (ELISA) kits were used (Innotest® β-Amyloid(1-42), Innogenetics N.V., Ghent, Belgium). The Aβ42 ELISA was performed essentially according to the manufacturer's protocol. Briefly, the standards (dilutions of synthetic Aβ1-42) were prepared in polypropylene Eppendorf with final concentrations of 8000 down to 3.9 pg/ml (1/2 dilution step). Samples, standards and blanks (100 μl) were added to the anti-Aβ42-coated plate supplied with the kit (the capture antibody selectively recognizes the C-terminal end of the antigen). The plate was allowed to incubate 3 h at 25° C. in order to allow formation of the antibody-amyloid complex. Following this incubation and subsequent wash steps a selective anti-Aβ-antibody conjugate (biotinylated 3D6) was added and incubated for a minimum of 1 hour in order to allow formation of the antibody-Amyloid-antibody-complex. After incubation and appropriate wash steps, a Streptavidine-Peroxidase-Conjugate was added, followed 30 minutes later by an addition of 3,3′,5,5′-tetramethylbenzidine (TMB)/peroxide mixture, resulting in the conversion of the substrate into a coloured product. This reaction was stopped by the addition of sulfuric acid (0.9 N) and the colour intensity was measured by means of photometry with an ELISA-reader with a 450 nm filter.
as §7, §8

The mark [5] stands for this setting: Method 1, Table 12a, SKNBE2 cells carrying APP 695 wild type, compounds 18 hours, ELISA, curve top and bottom fixed to 100 and 0, hill slope 1.
Where [6] appears, read: Table 12b, Method 1, SKNBE2 cells carrying APP 695 wild type, cell supernatant ELISA, averaged IC50 values.
The mark [7] stands for this setting: Table 12b, Method 1, SKNBE2 cells carrying APP 695 wild type, cell supernatant ELISA, averaged IC50 values, percentage of control vs log concentration.

One may read the IC50 as the midpoint of a concentration-inhibition curve. Low values mean higher potency, high ones lower potency.

Consider `COc1cc(Nc2cccn3c(CN(C)C)c(-c4ccccc4Cl)nc23)ccc1-n1cnc(C)n1` [Compound 126], for which the concentration for half-maximal inhibition (IC50) in the assay with Aβ42 [1] was 52 nM; in the assay on Aβtotal [2], over 10000 nM.
As for `COCc1c(-c2ccccc2Cl)nc2c(Nc3ccc(-n4cnc(C)c4)c(OC)n3)cccn12` [Compound 140], the values for the IC50 in the assay on Aβ42 [1] and with Aβtotal [2] were 6 nM and 4070 nM, respectively.
Taken in the same sequence, the figures for `COc1nc(Nc2cccn3c(OC)c(-c4ccc(F)cc4)nc23)ccc1-n1cnc(C)c1` [Compound 141] were 13 nM and over 10000 nM.
As to `Cc1cn(-c2ccc(Nc3ccnn4cc(-c5cc(F)ccc5C)nc34)cc2F)cn1` [Compound 166], the IC50 in the assay on Aβ42 [1] is 251 nM; in the assay on Aβtotal [2], over 10000 nM.
On to `COc1nc(Nc2cccn3cc(CC(F)(F)F)nc23)ccc1-n1cnc(C)c1` [Compound 179], for which the IC50 is 78 nM in the assay on Aβ42 [1] (Homo sapiens) and over 10000 nM in the assay with Aβtotal [2] (Homo sapiens).
As for `COc1nc(Nc2cccn3cc(CC(F)(F)F)nc23)ccc1-n1cnc(C)n1` [Compound 180], the half-maximal inhibitory concentration (IC50) in the assay on Aβ42 [1] was 562 nM; in the assay on Aβtotal [2], 6250 nM.
As to `CCC(=O)NCc1ccc(C)c(-c2cn3cccc(Nc4ccc(-n5cnc(C)c5)c(OC)c4)c3n2)c1` [Compound 111], the IC50 was 65 nM in the assay on Aβ42 [1] (Homo sapiens) and 5500 nM in the assay on Aβtotal [2] (Homo sapiens).
The like results for `CCC(=O)c1cn2cccc(Nc3ccc(-n4cnc(C)c4)c(OC)c3)c2n1` [Compound 117] were, in that order, 331 nM and over 10000 nM.
In the case of `COCc1c(-c2ccccc2)nc2c(Nc3ccc(-n4cnc(C)c4)c(F)c3)cccn12` [Compound 104], the figures for the IC50 in the assay on Aβ42 [1] and with Aβtotal [2] were 29 nM and 7240 nM, respectively.
On to `COCCOCCOCC(=O)NCc1ccc(C)c(-c2cn3cccc(Nc4ccc(-n5cnc(C)c5)c(OC)c4)c3n2)c1` [Compound 114], for which the IC50 with Aβ42 [1] (Homo sapiens) was determined as 151 nM; in the assay on Aβtotal [2] (Homo sapiens), 3630 nM.
Turning to `COc1cc(Nc2cc(C(C)C)nn3cc(C)nc23)ccc1-n1cnc(C)c1` [Compound 160], the IC50 is 87 nM with Aβ42 [1] and over 10000 nM in the assay on Aβtotal [2].
Taken in the same sequence, the figures for `Cc1cn(-c2ccc(Nc3cc(Cl)cn4cc(C5CCOCC5)nc34)cc2F)cn1` [Compound 150] were 200 nM and over 10000 nM.
Taken in the same sequence, the figures for `COc1cc(Nc2nccn3cc(-c4ccc(F)cc4)nc23)ccc1-n1cnc(C)n1` [Compound 178] were 380 nM and over 10000 nM.
The like results for `COc1cc(Nc2cc(C(F)(F)F)nn3cc(C4CCOCC4)nc23)ccc1-n1cnc(C)c1` [Compound 158] were, in that order, 71 nM and 8910 nM.
As for `COc1cc(Nc2cccn3cc(C(=O)OC(C)(C)C)nc23)ccc1-n1cnc(C)c1` [Compound 106], the concentration for half-maximal inhibition (IC50) stood at 34 nM in the assay on Aβ42 [1] and 4570 nM with Aβtotal [2].
Regarding `COc1cc(Nc2cc(Cl)nn3cc(C)nc23)ccc1-n1cnc(C)c1` [Compound 165], the half-inhibitory concentration (IC50) in the assay on Aβ42 [1] was 178 nM; with Aβtotal [2], over 10000 nM.
Taken in the same sequence, the figures for `COc1ccccc1-c1cc(Nc2ccc(-n3cnc(C)c3)c(OC)c2)c2nc(C)cn2n1` [Compound 161] were 132 nM and over 10000 nM.
Turning to `COc1cc(Nc2cccn3cc(C(O)C(F)(F)F)nc23)ccc1-n1cnc(C)c1` (stereo not drawn) [Compound 110], the figures for the IC50 with Aβ42 [1] and with Aβtotal [2] were 129 nM and over 10000 nM, respectively.
The like results for `Cc1cn(-c2ccc(Nc3cc(Cl)nn4cc(-c5cc(F)ccc5C)nc34)cc2F)cn1` [Compound 169] were, in that order, 417 nM and 7940 nM.
Consider `COc1nc(Nc2cccn3cc(C4CCOCC4)nc23)ccc1-n1cnc(C)c1` [Compound 143], for which the half-inhibitory concentration (IC50) in the assay on Aβ42 [1] was determined as 60 nM; in the assay with Aβtotal [2], 3390 nM.
Consider `COc1nc(Nc2cc(F)cn3cc(CC(C)C)nc23)ccc1-n1cnc(C)c1` [Compound 142], for which the results for the half-maximal inhibitory concentration (IC50) with Aβ42 [1] and in the assay on Aβtotal [2] were 31 nM and 6610 nM, respectively.
Take `CCCCc1cn2cccc(Nc3ccc(-n4cnc(C)c4)c(OC)c3)c2n1` [Compound 69]: the half-inhibitory concentration (IC50) in the assay on Aβ42 [1] is 46 nM; with Aβtotal [2], over 10000 nM.
For the compound `COc1cc(Nc2cccn3cc(-c4cc(CN)ccc4C)nc23)ccc1-n1cnc(C)c1` [Compound 107], the results for the IC50 in the assay on Aβ42 [1] (Homo sapiens) and with Aβtotal [2] (Homo sapiens) were 48 nM and 2040 nM, respectively.
Turning to `C=C(C)c1cc(Nc2ccc(-n3cnc(C)c3)c(OC)n2)c2nc(-c3ccccc3Cl)cn2n1` [Compound 171], the IC50 was found to be 537 nM in the assay on Aβ42 [1] (Homo sapiens) and 8320 nM with Aβtotal [2] (Homo sapiens).
For the compound `COc1cc(Nc2cccn3c(CN(C)C)c(-c4ccccc4)nc23)ccc1-n1cnc(C)n1` [Compound 128], the IC50 with Aβ42 [1] was 62 nM; in the assay with Aβtotal [2] it was over 10000 nM.
As for `Cc1cn(-c2ccc(Nc3cc(F)cn4cc(-c5ccc(F)cc5C)nc34)cc2F)cn1` [Compound 148], the half-maximal inhibitory concentration (IC50) in the assay on Aβ42 [1] was 43 nM; in the assay with Aβtotal [2], over 10000 nM.
In the case of `COc1cc(Nc2cccn3cc(C(=O)N(C)C)nc23)ccc1-n1cnc(C)c1` [Compound 123], the results for the IC50 with Aβ42 [1] and in the assay with Aβtotal [2] were 5370 nM and over 10000 nM, respectively.
For the compound `COc1cc(Nc2cc(Cl)nn3cc(-c4cc(F)ccc4C)nc23)ccc1-n1cnc(C)n1` [Compound 162], the IC50 is 138 nM with Aβ42 [1] and over 10000 nM in the assay on Aβtotal [2].
The like results for `COc1c(-c2ccc(F)cc2)nc2c(Nc3ccc(-n4cnc(C)c4)c(F)c3)cccn12` [Compound 112] were, in that order, 107 nM and over 10000 nM.
Turning to `COc1cc(Nc2cccn3cc(-c4ccc(Cl)cc4)nc23)ccc1-n1cnc(C)c1` [Compound 17], the IC50 with Aβtotal [3] (setting [5]) was over 3000 nM; in the assay on Aβtotal [3] (setting [6]), over 3020 nM; in the assay with Aβ42 [4] (setting [5]), 80 nM; with Aβ42 [4] (setting [7]), 71 nM.
Taken in the same sequence, the figures for `COc1ccc(-c2cn3cccc(Nc4ccc(-n5cnc(C)c5)c(OC)c4)c3n2)cc1` [Compound 36] were over 3000 nM, over 3020 nM, 64 nM and 60 nM.

The values are drawn from patent US8546440B2, “Substituted bicyclic imidazole derivatives as gamma secretase modulators” (Janssen Pharmaceuticals, Inc., priority 2008, dated 2013).
